Test [1] concerns A. baumannii ATCC #19606. The test is classed as cell-based, Acinetobacter baumannii. An excerpt:
(§1) As shown in the table below, many drug-resistant pathogens including multidrug-resistant Acinetobacter baumannii (clinical isolates) were susceptible to the bactericidal activity of the newly developed antimicrobial peptides. […] This is shown by their lower MIC and MBC against a number of antibiotic-resistant bacteria including methicillin-resistant Staphylococcus aureus, vancomycin-resistant Enterococci, and multidrug-resistant Acinetobacter baumannii. Many of these resistant strains are involved in nosocomial infections, which affect the immunocompromised and the elderly individuals with weakened defenses. The tests were done in a broth microdilution assay as described in our earlier publication (Concannon et al., 2003).

The test system of test [2] is A. baumannii WRAMC #11. The test is classed as cell-based, Acinetobacter baumannii.
Excerpt: as §1

Test [3] has as its system A. baumannii WRAMC #13. The format is cell-based, Acinetobacter baumannii.
Excerpt: as §1

Test [4] relates to A. baumannii WRAMC #14. The test is classed as cell-based, Acinetobacter baumannii.
Excerpt: as §1

Test [5] concerns A. baumannii WRAMC #15. The format is cell-based, Acinetobacter baumannii.
Excerpt: as §1

Test [6] concerns A. baumannii WRAMC #16. The test is classed as cell-based, Acinetobacter baumannii.
Excerpt: as §1

Test [7] has as its system A. baumannii WRAMC #17. The test is classed as cell-based, Acinetobacter baumannii.
Excerpt: as §1

Test [8] deals with A. baumannii WRAMC #18. The test is classed as cell-based, Acinetobacter baumannii.
Excerpt: as §1

Test [9] deals with A. baumannii WRAMC #19. The format is cell-based, Acinetobacter baumannii.
Excerpt: as §1

In test [10] the test system is A. baumannii WRAMC #2. The test is classed as cell-based, Acinetobacter baumannii.
Excerpt: as §1

For test [11], the system named is A. baumannii WRAMC #4. The test is classed as cell-based, Acinetobacter baumannii.
Excerpt: as §1

The test system of test [12] is A. baumannii WRAMC #5. The format is cell-based, Acinetobacter baumannii.
Excerpt: as §1

Test [13] relates to A. baumannii WRAMC #8. The test is classed as cell-based, Acinetobacter baumannii.
Excerpt: as §1

Test [14] relates to MRSA ATCC #33591. The format is cell-based, Staphylococcus aureus.
Excerpt: as §1

In test [15] the test system is MRSA ATCC #43300. The test is classed as cell-based, Staphylococcus aureus.
Excerpt: as §1

The test system of test [16] is MRSA VVRAMC #10. The test is classed as cell-based, Staphylococcus aureus.
Excerpt: as §1

Test [17] deals with MRSA VVRAMC #1. The format is cell-based, Staphylococcus aureus.
Excerpt: as §1

Test [18] deals with MRSA WRAMC #12. The test is classed as cell-based, Staphylococcus aureus.
Excerpt: as §1

The test system of test [19] is MRSA WRAMC #9. The format is cell-based, Staphylococcus aureus.
Excerpt: as §1

For test [20], the system named is VRE ATCC #51299. The format is cell-based, Enterococci.
Excerpt: as §1

Test [21] relates to VRE VVRAMC #7. The format is cell-based, Enterococci.
Excerpt: as §1

For test [22], the system named is VRE WRAMC #3. The test is classed as cell-based, Enterococci.
Excerpt: as §1

In test [23] the test system is VRE WRAMC #6. The test is classed as cell-based, Enterococci.
Excerpt: as §1

The test system of test [24] is Actinomyces naeslundii. As to the kind of experiment: Adherence inhibition of tritiated A. naeslundii to saliva-coated HA disks. The format is cell-based. Conditions: disks pretreated with KSL-W 1 mg/ml; 2 hour incubation at 37° C. As for the experimental part: In these studies, saliva-coated HA disks pre-treated with salivary proteins, KSL-W (1 mg/ml), or chlorhexidine (1 mg/ml), were used as colonizable surfaces to test the adherence of tritiated A. naeslundii, an early colonizer that is involved in dental plaque formation. In these experiments, labeled A. naeslundii ([…] cells per ml) were incubated for 2 h with HA disks that were pre-treated with different agents.

Test [25] deals with oral biofilms formed on saliva-coated HA disks by salivary bacteria. As to the kind of experiment: In vitro plaque assay, viable counts of oral biofilms on saliva-coated HA disks. The format is cell-based, human salivary bacteria. The conditions noted are these: 66 h-old oral biofilms; KSL 200 μg/ml, benzalkonium chloride 0.001%. An excerpt:
In conjunction with the dual flow cell system, a modification of an in vitro plaque model of biofilm formation described by Guggenheim et al. (Guggenheim et al., 2001) was used to determine the effects of tested antimicrobials and other agents on developed oral biofilms (see Appendix I for details). HA disks (Clarkson, south Williamsport, Pa.) were employed as substrates for salivary bacteria to form biofilms.
To determine the inhibitory activity of KSL on developed oral biofilms, disks containing 45 h-old biofilms were transferred to wells containing aqueous KSL (200 μg/ml; 1 ml/well). Following 30 min exposure at 37° C., disks were rinsed with 3×1 ml of saline and transferred to sterile 15 ml polypropylene tubes containing 1 ml PBS. Biofilm cells adherent to surfaces (after treatment) were recovered by sonicating for 2 min at 5 watts with a Microson ultrasonic cell disrupter equipped with a cup horn (Misonix Inc., Farmingdale, N.Y.). Settings including the time interval used in the sonication were predetermined empirically to yield maximal recovery of adherent biofilm cells.
The effect of KSL on disrupted biofilms was assessed by recovering biofilm cells from HA disks (45 h-old biofilms) through sonication as described above. The detached biofilm cells (in sterile dH2O) were mixed with an equal volume of aqueous KSL to obtain a final peptide concentration of 200 μg/ml, and the reaction mixtures incubated at 37° C. for 30 min. The interactions of KSL and suspended biofilm cells were terminated by washing in PBS.
To determine the effect of the surface-active agent (benzalkonium chloride; Sigma, St. Louis, Mo.) in promoting the killing of intact biofilms by KSL, 66 h-old oral biofilms were treated with KSL (200 μg/ml), benzalkonium chloride (0.001%), or a combination of the two agents, followed by viable counts determinations and confocal laser scanning microscopy of treated samples.
Viable counts of biofilm cells derived from treated disks or disrupted biofilms were determined by spiral plating serially diluted samples onto blood agar plates. Distilled water or 0.12% aqueous chlorhexidine digluconate (Sigma) was used as the negative or positive control, respectively. The 45 h-old biofilms were exposed to chlorhexidine for 1 min, and to water for 30 min at 37° C.
In this assay, HA disks (Clarkson Chromatography Products, Inc., South Williamsport, Pa.) were used as surfaces on which plaque formation can occur. Before use, sterile HA disks were conditioned in the wells of a 24-well microtiter plate (Becton Dickinson, Franklin Lakes, N.J.) containing 50% sterile saliva by incubating at room temperature for a minimum of two hours on a rotating platform at 95 rpm. The saliva was removed and each well inoculated with isolated salivary bacteria at a bacterial cell concentration of 1.0×10^7 cells/ml in sterile 50% whole saliva. After two hours of incubation (with rotation) at 37° C. to allow the bacteria to adhere to surfaces, unattached bacteria were removed and replaced with supplemented saliva-based medium. The plates were incubated with rotation at 37° C. for 45 h (with medium replaced three times), or 66 h (with medium replaced five times) in a CO2 incubator prior to treatments, and the recovery of biofilm cells from treated or untreated disks.
In these studies, KSL or KSL-W was used at 200 μg/ml, whereas Bzl and CPC were used at 0.001% and 0.0025%, respectively. […]

Test [26] concerns biofilms grown on saliva-coated HA surfaces. As to the kind of experiment: Live/Dead BacLight staining with confocal laser scanning microscopy of treated biofilms. Conditions: 66 h-old biofilms; KSL 200 μg/ml, Bzl 0.001%, CHX 0.12%. The test is classed as cell-based, human salivary bacteria. As for the experimental part:
(A) Effect of KSL on intact versus disrupted 45 h biofilms formed on saliva-coated HA disks by salivary bacteria using the in vitro plaque assay. A Mann-Whitney test was used for comparison of log reductions in CFU between the experimental groups (KSL-treated intact or disrupted biofilms) with the control groups (dH2O-treated intact or disrupted biofilms). The single asterisk represents a statistically significant difference between KSL and dH2O-treated intact biofilms (p<0.05). Likewise, double asterisks represent a statistically significant difference between KSL and dH2O-treated disrupted biofilms (p<0.01). […] (B) Effect of benzalkonium chloride in promoting the bactericidal activity of KSL against 66 h-old intact oral biofilms formed on saliva-coated HA disks using the in vitro plaque system. A Kruskal-Wallis test was used to compare log reductions in CFU among various treatment groups including the control group (dH2O-treated). The single asterisk represents a statistically significant difference between the combined treatment of KSL and benzalkonium chloride (Bzl) and dH2O (p<0.001), KSL (p<0.01), or Bzl (p<0.01)-treated intact biofilms. Double asterisks represent a statistically significant difference between CHX and dH2O (p<0.001) or Bzl (P<0.05)-treated intact biofilms. […] No significant difference in viability counts was observed between CHX-treated versus the combined use of KSL and Bzl. For (A) and (B), the data represent the determinations of one of three separate experiments, each performed in quadruplicate. Bars represent standard deviations. (C) Confocal images of control and treated biofilms grown on saliva-coated HA surfaces. Live/Dead BacLight™ Viability kit (Molecular Probes, Eugene, Oreg.) was used to assess the viability of biofilm cells exposed to different treatments. […] An excitation wavelength of 488 nm was used and the fluorescence light emitted was collected by two separate emission filters, 500-530 nm (SYTO 9, live), and 650-710 nm (propidium iodide, dead). […]

As a reminder, the MBC is the smallest concentration meeting the test's criterion for killing. A high value points to less potent killing. One may read the MIC as the least concentration at which growth counts as inhibited.

For “H-KKVVFWVKFK-NH2 [KSL-W, NH2-Lys-Lys-Val-Val-Phe-Trp-Val-Lys-Phe-Lys-CONH2]”, the MBC in test [1] was found to be 100 µg/mL; in test [2], 25 µg/mL; in test [3] it was 50 µg/mL; in test [4] it was 50 µg/mL; in test [5], 50 µg/mL; in test [6], 50 µg/mL. The MBC came out at 25 µg/mL in test [7]; 25 µg/mL in [8]; 100 µg/mL in test [9]; 100 µg/mL in [10]; 25 µg/mL in test [11]; 25 µg/mL in [12]. Further, the MBC was 25 µg/mL in test [13]; 200 µg/mL in test [14]; 50 µg/mL in [15]; 200 µg/mL in test [16]; 100 µg/mL in test [17]; above 200 µg/mL in [18]. Moreover, the MBC in test [19] is above 200 µg/mL; in [20] it was 200 µg/mL; in test [21], 25 µg/mL; in test [22] it was 200 µg/mL; in test [23] it was 100 µg/mL. The MIC amounted to 25 µg/mL in test [4]; 12.5 µg/mL in test [8]; 50 µg/mL in test [9]; 25 µg/mL in test [10]; 12.5 µg/mL in [12]; 100 µg/mL in test [14]. The MIC in [15] is 25 µg/mL; in test [18] it was 200 µg/mL; in test [19], 200 µg/mL; in test [20] it was 100 µg/mL; in test [22], 100 µg/mL; in [23], 12.5 µg/mL. Besides, in [24], the “adherence of tritiated A. naeslundii to pretreated HA disks” value is recorded as “great reduction in the number of bacteria that attached”.

In the case of “benzalkonium chloride [reference compound]”, the “effect on viability of intact biofilms compared to water treatment” value in test [25] is recorded as “less effect on the viability”. Also, the “viability of biofilm cells by live/dead staining” value in [26] is on record as “less impact on the viability of biofilm cells”.
